What all share (type): ADME, organism-based, Canis lupus familiaris
In data set [1] the test system is Nucleic Acid. Briefly: Ratio of drug level in temporal muscle to heart in iv dosed dog measured after 40 mins. To be noted: in vivo.
Data set [2] relates to Nucleic Acid. Description: Ratio of drug level in temporal muscle to kidney in iv dosed dog measured after 34 mins. Conditions: in vivo; call rule not given here.
For data set [3], the system named is Nucleic Acid. Description: Ratio of drug level in temporal muscle to liver in iv dosed dog measured after 34 mins. To be noted: in vivo.
The nature of data set [4]: Ratio of drug level in temporal muscle to blood in iv dosed dog measured after 34 mins.
The test system of data set [5] is Nucleic Acid. Description: Ratio of drug level in temporal muscle to lung in iv dosed dog measured after 40 mins. To be noted: in vivo.
Data set [6] relates to Nucleic Acid. Description: Ratio of drug level in temporal muscle to cerebrospinal fluid in iv dosed dog measured after 34 mins. Conditions: in vivo.
Data set [7] is described as follows: Biodistribution in iv dosed dog urinary bladder measured after 21 to 51 mins by scintigraphic analysis. To be noted: in vivo.
The test system of data set [8] is Nucleic Acid. Description: Ratio of drug level in temporal muscle to stomach in iv dosed dog measured after 40 mins. Conditions: in vivo.
Data set [9] can be described thus: Ratio of drug level in temporal muscle to bile in iv dosed dog measured after 40 mins. Conditions: in vivo.
The subject of data set [10] is Nucleic Acid. Description: Ratio of drug level in temporal muscle to kidney in iv dosed dog measured after 40 mins. Conditions: in vivo.
Data set [11] relates to Nucleic Acid. Description: Ratio of drug level in temporal muscle to mesenteric nodes in iv dosed dog measured after 40 mins. Conditions: in vivo.
In data set [12] the test system is Nucleic Acid. Description: Ratio of drug level in temporal muscle to stomach in iv dosed dog measured after 34 mins. To be noted: in vivo.
The nature of data set [13]: Ratio of drug level in temporal muscle to urine in iv dosed dog measured after 34 mins. To be noted: in vivo.
Data set [14] relates to Nucleic Acid. Briefly: Ratio of drug level in temporal muscle to spleen in iv dosed dog measured after 34 mins. Conditions: in vivo.
Data set [15] has as its system Nucleic Acid. Briefly: Ratio of drug level in temporal muscle to adrenal in iv dosed dog measured after 40 mins. To be noted: in vivo.
The test system of data set [16] is Nucleic Acid. Description: Ratio of drug level in temporal muscle to heart in iv dosed dog measured after 34 mins. Conditions: in vivo.
Data set [17] concerns Nucleic Acid. Briefly: Ratio of drug level in temporal muscle to pancreas in iv dosed dog measured after 40 mins. Conditions: in vivo.
Data set [18] concerns Nucleic Acid. Briefly: Ratio of drug level in temporal muscle to liver in iv dosed dog measured after 40 mins. To be noted: in vivo.
The test system of data set [19] is Nucleic Acid. Description: Ratio of drug level in temporal muscle to lung in iv dosed dog measured after 34 mins. Conditions: in vivo.
Data set [20] can be described thus: Ratio of drug level in temporal muscle to bile in iv dosed dog measured after 34 mins. To be noted: in vivo.
In data set [21] the test system is Canis familiaris. Briefly: Biodistribution in iv dosed dog left lateral whole body measured after 4 mins by scintigraphic analysis. To be noted: in vivo.
Data set [22] deals with Nucleic Acid. Briefly: Ratio of drug level in temporal muscle to pancreas in iv dosed dog measured after 34 mins. Conditions: in vivo.
Data set [23] in a line: Ratio of drug level in temporal muscle to urine in iv dosed dog measured after 40 mins. Conditions: in vivo.
In data set [24] the test system is Nucleic Acid. Briefly: Ratio of drug level in temporal muscle to spleen in iv dosed dog measured after 40 mins. Conditions: in vivo.
In data set [25] the test system is Nucleic Acid. Description: Ratio of drug level in temporal muscle to mesenteric fat in iv dosed dog measured after 40 mins. Conditions: in vivo.
Data set [26] deals with Nucleic Acid. Description: Ratio of drug level in temporal muscle to brain in iv dosed dog measured after 34 mins. Conditions: in vivo.
The subject of data set [27] is Nucleic Acid. Briefly: Ratio of drug level in temporal muscle to brain in iv dosed dog measured after 40 mins. Conditions: in vivo.
A short description of data set [28]: Biodistribution in iv dosed dog blood measured after 3 mins by scintigraphic analysis. To be noted: in vivo, 0.05 h.
Data set [29] in a line: Biodistribution in iv dosed dog left lateral heart measured after 18 to 80 mins by scintigraphic analysis. Conditions: in vivo.
Another data set concerns Liver. Briefly: Biodistribution in iv dosed dog left lateral liver measured after 18 to 80 mins by scintigraphic analysis. Conditions: in vivo.
A short description of data set [30]: Biodistribution in iv dosed dog left lateral head/neck measured after 35 mins by scintigraphic analysis. Conditions: in vivo.
Data set [31] in a line: Biodistribution in iv dosed dog ventral abdomen measured after 30 mins by scintigraphic analysis. To be noted: in vivo, 0.5 h.
Data set [32] is described as follows: Biodistribution in iv dosed dog left lateral thorax measured after 27 mins by scintigraphic analysis. Conditions: in vivo, 0.45 h.
Data set [33] concerns Canis familiaris. Briefly: Biodistribution in iv dosed dog lung after 3 mins by scintigraphic analysis. To be noted: in vivo, 0.05 h.

A word on the Kp: it is tissue or fluid exposure divided by exposure in the circulation.

On to `O=[11C](O)C(O)c1ccccc1Cl` (configuration not stated), for which the Ratio in the data set on Nucleic Acid [1] was 1.06; with Nucleic Acid [2], 4.46; in the data set on Nucleic Acid [3] it was 1.38; in the data set on Nucleic Acid [5], 1.6; in the data set on Nucleic Acid [6], 2; in the data set on Nucleic Acid [8], 1.17. For the same compound, the Ratio turned out to be 0.85 in data set [9]; 6.26 with Nucleic Acid [10]; 2.28 with Nucleic Acid [11]; 1.35 with Nucleic Acid [12]; 36.77 in data set [13]; 1.08 with Nucleic Acid [14]. Moreover, the Ratio in the data set on Nucleic Acid [15] amounted to 3.73; in the data set with Nucleic Acid [16], 1.15; with Nucleic Acid [17] it was 1.18; with Nucleic Acid [18] it was 1.79; in the data set with Nucleic Acid [19] it was 1.08; in data set [20], 1.23. For the same compound, the Ratio with Nucleic Acid [22] turned out to be 4.54; in data set [23] it was 295; in the data set with Nucleic Acid [24] it was 1.46; in the data set with Nucleic Acid [25], 0.47; with Nucleic Acid [26] it was 0.23; with Nucleic Acid [27] it was 0.16. For the same compound, the Kp at 34 min in data set [4] is 13.8. Also, the Drug uptake result (in [7]; with Canis familiaris [21]) was “Active” throughout.

Turning to `COc1ccc(C(O)[11C]#N)cc1` (configuration not stated), the Drug uptake result (in data set [28]; in [29]; in the data set on Liver) was “Active” each time.

Turning to `O=[11C](O)C(O)c1ccccc1` (configuration not stated), the Drug uptake entry (in [7]; in the data set on Canis familiaris [21]) was “Active” in each case.

Take `O=[11C](O)C(O)c1ccc(Cl)cc1` (configuration not stated): the Drug uptake entry (in data set [7]; in the data set on Canis familiaris [21]) was “Active” in each case.

On to `N#[11C]C(O)c1ccc(O)c(O)c1` (configuration not stated), for which the Drug uptake result (in data set [30]; in data set [31]; in data set [32]; in the data set on Canis familiaris [21]) was “Active” in each case.

For `CCO[11C](=O)C(O)c1ccccc1` (configuration not stated), the Drug uptake entry with Canis familiaris [33] is given as “Active”.

Consider `O=[11C](OCc1ccccc1)C(O)c1ccccc1` (configuration not stated), for which the Drug uptake result in the data set on Canis familiaris [33] was “Active”.

As to `Cc1cccc(C(O)[11C](=O)O)c1` (configuration not stated), the Drug uptake entry (in data set [7]; in the data set on Canis familiaris [21]) was “Active” throughout.
